Assay results reported in article PMC6754500, “Ultra-long-acting tunable biodegradable and removable controlled release implants for drug delivery” (Nature Communications, 2019).
Values after ≈ are worked out from the molar mass of the structure shown. Counter-ions that a name gives are not always drawn. Like-named read-outs stand apart in the source and are kept apart here.

Tests used:
[1] = Saturation concentration (solubility) of drugs in NMP; type: physicochemical; conditions: quantified by HPLC; for solubility at 24 h: 40 °C, organic solvent or mixture, thermodynamic from solid
Procedure: The saturation concentration of a panel of fourteen (14) antiretroviral drugs in NMP was determined. For each drug, 100 mg was weighed into individual vials and 100 mg of NMP was added to each vial. The mixture was stirred at 40 °C for 24 h. […] Sample aliquots (1–2 mg, n = 4) were collected from the saturated supernatant and diluted with acetonitrile (ACN). Drug concentration in the saturated aliquots was determined by HPLC analysis.

[2] = cited from earlier work; for pKa: Supplementary Table 1; for LogP: log of drug partition coefficient, ref drugbank.ca
[3] = tested on: HIV-1; conditions: cited from earlier work; for IC90: Supplementary Table 1
[4] = tested on: HIV-1JR-CSF; test: In vitro HIV-1 inhibition in TZM-bl cells; type: cell-based; conditions: Human immunodeficiency virus 1, read-out: Effective concentration required to inhibit virus replication by 50% (IC50), DTG eluted (24 h in PBS) from solidified DTG-ISFI stored 6 months at 25 °C
Procedure: DTG-ISFI formulation was stored for 6 months at 25 °C and then solidified in PBS. The concentration of DTG eluted from the solidified implant after 24 h incubation in PBS was determined by HPLC and its HIV inhibitory activity was assessed using TZM-bl cells as described in the methods section.
Viral particles were collected in tissue culture medium that was centrifugated at 2000×g for 20 min at 4 °C to remove cell debris. […] Infected TZM-bl cells were stained using a solution containing 4 µM potassium ferrocyanide, 4 µM potassium ferricyanide, 2 µM magnesium chloride, 0.4 mg/ml X-gal[55],[56] and stained cells counted. TZM-bl cells were cultured at 37 °C 10% CO2 in TZM-bl medium (Dulbecco’s Modified Eagle Medium (Sigma) supplemented with 10% heat-inactivated fetal bovine serum, 25 mM HEPES, 500 units/ml penicillin, 50 µg/ml streptomycin and 2 mM L-glutamine (Cellgro)), and regularly checked for morphology by microscope.
Cells were regularly checked for morphology by microscopy. […] Luciferase activity was measured with a SpectraMax M3 Spectrometer (Molecular Devices, Sunnyvale, CA) and the results normalized to the luciferase activity of cells infected with HIV in the absence of DTG and expressed as a percentage of decrease in luciferase activity. Activity was measured in 3 independent experiments, each dilution measured in quadruplicate.

[5] = Saturation solubility in PBS with or without 2% solutol; type: physicochemical; conditions: for solubility: HPLC
[6] = pH 7; cited from earlier work

Row | Structure (SMILES) | solubility at 24 h ([1]; N-methyl-2-pyrrolidone (NMP)) [mg/mL] | pKa [2] | LogP [2] | IC90 [3] [µg/mL] | further results
1 | Nc1ccn([C@@H]2CS[C@H](CO)O2)c(=O)n1 [Lamivudine] | 250 ± 3 (≈ 1090 mM) |  |  |  | 
2 | Cc1cc(C#N)cc(C)c1Oc1nc(Nc2ccc(C#N)cc2)nc(N)c1Br [Etravirine] | 122 ± 2 (≈ 280 mM) | 3.75 | 5.54 | 0.0013 (≈ 2.99e-06 mM) | 
3 | CC(C)OC(=O)OCOP(=O)(CO[C@H](C)Cn1cnc2c(N)ncnc21)OCOC(=O)OC(C)C [TenofovirDisoproxil Fumarate] | 156 ± 2 |  |  | 0.00554 | 
4 | Nc1nc(=O)n([C@@H]2CS[C@H](CO)O2)cc1F [Emtricitabine] | 202 ± 3 (≈ 817 mM) |  |  | 0.051 (≈ 0.000206 mM) | 
5 | CC(C)c1nc(CN(C)C(=O)N[C@H](C(=O)N[C@@H](Cc2ccccc2)C[C@H](O)[C@H](Cc2ccccc2)NC(=O)OCc2cncs2)C(C)C)cs1 [Ritonavir] |  |  |  | 2.1 (≈ 0.00291 mM) | 
6 | CC(C)CN(C[C@@H](O)[C@H](Cc1ccccc1)NC(=O)O[C@H]1CO[C@H]2OCC[C@H]21)S(=O)(=O)c1ccc(N)cc1 [Darunavir] |  |  |  | 0.00243 (≈ 4.44e-06 mM) | solubility at 24 h ([1]; N-methyl-2-pyrrolidone): 511 ± 2 mg/mL (≈ 933 mM); Protein-adjusted IC90 (PA-IC90) [3]: 0.0024 µg/mL
7 | Cc1nnc(C(=O)NC(C)(C)c2nc(C(=O)NCc3ccc(F)cc3)c(O)c(=O)n2C)o1 [Raltegravir] |  | 6.3 | -0.39 | 0.00053 (≈ 1.19e-06 mM) | solubility at 24 h ([1]; N-methyl-2-pyrrolidone): 54 ± 2 mg/mL (≈ 122 mM)
8 | Cc1ccnc2c1NC(=O)c1cccnc1N2C1CC1 [Nevirapine] |  | 2.8 | 2.5 | 0.04 (≈ 0.00015 mM) | 
9 | COC(=O)N[C@H](C(=O)N[C@@H](Cc1ccccc1)[C@@H](O)CN(Cc1ccc(-c2ccccn2)cc1)NC(=O)[C@@H](NC(=O)OC)C(C)(C)C)C(C)(C)C [Atazanavir] | 328 ± 2 (≈ 465 mM) | 4.3 | 4.5 |  | Protein-adjusted IC90 (PA-IC90) [3]: 0.014 µg/mL
10 | Cc1cn([C@H]2C=C[C@@H](CO)O2)c(=O)[nH]c1=O [Stavudine] | 248 ± 3 (≈ 1110 mM) | 10.26 | -0.7 | 0.03 to 0.3 | 
11 | C[C@@H]1CCO[C@H]2Cn3cc(C(=O)NCc4ccc(F)cc4F)c(=O)c(O)c3C(=O)N12 [Dolutegravir] | 255 ± 4 (≈ 608 mM) |  | 2.2 |  | IC50 [4]: 0.0021 µg/mL (≈ 5.01e-06 mM); in vitro protein-adjusted IC90 for HIV-1 [3]: 0.064 µg/mL; Solubility in PBS + 2% solutol relative to PBS with no solutol ([5]; 37 °C): ~ 6 fold; solubility ([5]; PBS + 2% solutol, pH 7.4, aqueous with cosolvent or surfactant or cyclodextrin, thermodynamic from solid, 37 °C): 0.564 ± 0.0036 mg/mL; solubility ([5]; PBS with no solutol, 37 °C, read-out: Solubility in PBS with no solutol): 0.091 mg/mL (≈ 0.217 mM)
12 | CCN1C[C@H](C)n2c(c(O)c3c(=O)n(Cc4ccc(F)c(Cl)c4)nc(C(=O)NC)c32)C1=O [MK-2048] |  |  |  |  | Saturation solubility in NMP ([1]; N-methyl-2-pyrrolidone): 715 ± 5 mg/mL; Solubility in water [6]: < 0.1 mg/mL; in vitro 90% inhibitory concentration (IC90) ([3]; against HIV-1): ~ 0.033 μg/mL; Protein-adjusted IC90 (PA-IC90) [3]: 0.033 µg/mL; Solubility in PBS + 2% solutol relative to PBS with no solutol ([5]; pH 7.4): ~ 9 fold
13 | Cc1cc(/C=C/C#N)cc(C)c1Nc1ccnc(Nc2ccc(C#N)cc2)n1 [Rilpivirine] | 228 ± 5 (≈ 622 mM) |  | 4.86 | 0.0125 (≈ 3.41e-05 mM) | Protein-adjusted IC90 (PA-IC90) [3]: 0.012 µg/mL
14 | O=C1Nc2ccc(Cl)cc2[C@@](C#CC2CC2)(C(F)(F)F)O1 [Efavirenz] | 118 ± 2 (≈ 374 mM) |  | 4.6 |  | 
